Assay: Human HepG2 cell viability assay in 384 well format
Format: toxicity, cell-based
Parameters: dose 125 nL, time 70.5 hour; concentration not given beside the values
Settings: HepG2 cells, read-out: Inhibition

SMILES	cytotoxicity at 70.5 h [%]
Cc1ccc(C(=O)N(CC2CCCO2)c2ccncc2)o1 (stereo not given)	-8.12
CC1CCN(C(=O)c2ccc(N(C)Cc3cnn(C)c3)nc2)CC1	-7.81
Cc1cc(C(=O)NC2=NCCS2)c(C)n1-c1ccccn1	-6.96
CCc1n[nH]c(C2CN(C(=O)COCC(F)(F)F)CCO2)n1 (stereo not given)	-10.6
CC1CCN(C(=O)NCCc2cc(F)ccc2F)C1 (stereo not given)	-11.9
COc1ccc(C(=O)CCC(=O)NCc2ncc(C)s2)cc1F	-9.89
Cc1cc(C)n(CC(=O)N(CC2CN(C)CCO2)c2nccs2)n1 (stereo not given)	-4.83
Cc1cnn(CCC(=O)N(CC2CN(C)CCO2)c2nccs2)c1 (stereo not given)	-12.8
CCc1nc(CN(C)CC(=O)NC(C)C)cs1	-13.3
CCc1nc(CN(C)CC(=O)OC(C)(C)C)cs1	-4.57
CCOC(=O)C1CCCN(Cc2cc(C#N)n(C)c2C)C1 (stereo not given)	-11.7
Cc1cnn(CC(=O)N(CC2CN(C)CCO2)c2nccs2)c1 (stereo not given)	-14.4
O=C(c1cccnc1)N(Cc1ccncc1)C1CC1	-4.09
O=S(=O)(CCN1CCCC1Cn1cccn1)c1ccccc1 (stereo not given)	-13.8
CCc1nc(CCNC(=O)NC2CC(=O)N(C(C)(C)C)C2)cs1 (stereo not given)	-5.26
CS(=O)(=O)NC1CCN(C(=O)c2ccc(F)cc2)CC1	-3.98
N#CCCN(CCC#N)C(=O)c1ccc(OCC2CC2)cc1	-7.55
Cc1occc1C(=O)NCC(=O)NCCOc1ccc2c(c1)CCC2	-10.4
NC(=O)CC1CCN(C(=O)c2csc(-c3ccccc3F)n2)CC1	-18.8
CCN1CCN(CC(O)c2ccc(Br)cc2)CC1 (stereo not given)	-1.54
c1ccc(C(c2ccccc2)N2CCN(CCn3cncn3)CC2)cc1	-10.4
NC(=O)CC1CCN(CC(O)c2ccc(Br)cc2)CC1 (stereo not given)	-6.64
Cc1cnn(C2CN(CC(=O)NCC3(c4ccccc4)CC3)C2)c1	-6.95
Cc1cnn(C2CN(CC(=O)NCC3(c4ccccc4)CCC3)C2)c1	-2.82

SMILES	cytotoxicity at 70.5 h [%]
CC(=O)c1ccc(NC(=O)NC(C)c2ccc3c(c2)CC(=O)N3)cc1 (stereo not given)	2.82
CCc1nsc(N2CCN(C(=O)COc3ccccc3)CC2)n1	-6.06
O=C(NCC1(O)CCSCC1)c1ccoc1	-1.38
CC(C)c1nc(C2CCCN2C(=O)c2ccc3nncn3c2)no1 (stereo not given)	2.23
CCc1nsc(N2CCN(CC(=O)NCc3cccnc3)CC2)n1	-5.18
COc1ccc(Cl)cc1NC(=O)CCNc1ccc(C#N)cn1	-6.33
COc1cccc(C(O)CNC(=O)CC2CCCCC2)c1 (stereo not given)	-8.34
COc1c(F)cc(NC(=O)NCc2nncn2C2CC2)cc1F	0.912
O=C1CN(CCCNC(=O)Nc2ccccn2)CCN1	1.68
CC(C)(C)NC(=O)CN1CCCN(Cc2cc(C#N)ccc2F)CC1	4.54
Cc1nsc(N2CCN(CC(=O)NCc3ccc(F)cc3)CC2)n1	-0.931
CN(Cc1cnn(C)c1)S(=O)(=O)N1CCCCC1	-5.36
O=C1OCCN1CCN1CCCN(Cc2ccccc2F)CC1	-4.26
CCc1nsc(N2CCCN(C(=O)COc3ccccc3)CC2)n1	-3.48
COc1cccc(C(=O)NCc2ccccc2S(=O)(=O)N(C)C)c1	-4.93
COc1cccc(C(=O)NCc2ccccc2S(=O)(=O)N(C)CCO)c1	-4.69
COCCN1CCN(CC(O)c2cc(OC)ccc2OC)CC1 (stereo not given)	-6.61
O=C(NCCSC1CCCC1)c1ccc(F)cc1F	-5.35
NC(=O)N1CCCC(C(=O)NCc2ccccc2OC(F)(F)F)C1 (stereo not given)	-9.4
CCc1ncncc1C(=O)NCCNC(=O)c1ccc(C)c(F)c1	-8.42
COC(=O)CNc1cc(C(=O)NCC(F)(F)F)cc(F)c1C	-2.26
COC(=O)CCNC(=O)c1ccc(NC(=O)N(C)CC(C)(C)C)cc1	-6.05
O=C(CCc1ccccc1)N1CCN(C(=O)c2ccc[nH]2)CC1	-12.3
N#Cc1ccc(N2CCCC2Cn2cncn2)nc1 (stereo not given)	-6.25

SMILES	cytotoxicity at 70.5 h [%]
CC(C)NC(=O)NCc1ccccc1NS(=O)(=O)c1ccccc1	12.7
CC(C)c1nccn1C1CCCN(C(=O)c2ccn(C)c(=O)c2)C1 (stereo not given)	-4.13
CN(CCCNS(=O)(=O)N1CCC2(CC1)OCCO2)c1ccccc1	22.7
CN(CCc1ccccn1)Cc1nccn1Cc1ccccc1	11.8
CCNC(=O)NC(=O)CNC(C)(CC)c1nccs1 (stereo not given)	-1.38
CC(CC(=O)N1CCC(c2nnc3n2CCC3)CC1)n1cccc1 (stereo not given)	10.7
CC(=O)c1c(F)cccc1NC1CCN(C(=O)C2CCCCC2)CC1	-2.39
O=C(NCCSC1CCCC1)c1c(F)cccc1F	-6.07
COc1ccc(CNC(=O)N2CCOCC2C2CC2)c(C)c1 (stereo not given)	-6.07
CN(Cc1ccccc1OC(F)(F)F)C(=O)C1CC1	-7.05
Cc1ccccc1-n1cnnc1SCC1CCCCO1 (stereo not given)	-9.11
CCOC(=O)C1CCN(Cc2c(O)ccc3oc4c(c23)CCCC4)CC1	11.2
Cc1nn(CN(CC(C)C)C2CC2)c(=O)c2noc(C)c12	14.5
O=C(NCC(O)COc1ccccc1)C1(c2ccc(F)cc2)CC1 (stereo not given)	-10.3
O=C(NCC(O)COc1cccc(F)c1)c1ccoc1 (stereo not given)	-13.2
CC1COc2ccccc2N1C(=O)c1ccc(=O)n(C)c1 (stereo not given)	22.1
CN(C)C(=O)C(C)(C)c1ccc2c(c1)OCCO2	-5.25
O=S(=O)(NCCCN1CC=CC1)c1cncc(Cl)c1	29.6
CC(C)(C)Cc1nnc(NCc2ccsc2)o1	28.5
COc1ccnc(N2CCN(C(C)c3nc(C)no3)CC2)n1 (stereo not given)	4.57
CCn1ncc2c1CCCC2NCc1csc(C(C)C)n1 (stereo not given)	0.0472
CCCc1cc(N2CCCC2Cn2nc(C)nc2C)n2ncnc2n1 (stereo not given)	-0.261
CCS(=O)(=O)NCC(=O)N1CC2(CCCC2)c2c(F)cccc21	-1.86
COc1cc(F)ccc1N(C)Cc1ccncc1	-1.33

SMILES	cytotoxicity at 70.5 h [%]
COc1ccc(N(C(=O)Cc2ccc(C)nc2)C(C)C)cc1F	-5.23
COc1ccc2cc(CN(C)C(C)c3nc(C(C)(C)C)no3)ccc2c1 (stereo not given)	-5.37
Cc1cccc(C(=O)Nc2cccc3c2C(=O)NC3)n1	-5.67
CC(C)NC(=O)CCNC(=O)c1cc(F)ccc1NS(C)(=O)=O	15.1
CCOC(=O)c1nc(CN2CCC(NC(=O)C(C)C)CC2)cs1	-3.69
Cc1ccc(NS(C)(=O)=O)c(C(=O)NCCC(=O)NC(C)C)c1	-6.46
COc1ccc(N(C(=O)c2ccc(C)nc2)C(C)C)cc1F	15.8
Cc1ccnc(N2CCC(NCCOc3ccccc3)CC2)n1	-4.28
CC(C)(C)C(=O)NCC(=O)NC1CC(c2cccc(Cl)c2)C1 (stereo not given)	-1.37
CS(=O)(=O)CCC(=O)NC1CC(c2cccc(Cl)c2)C1 (stereo not given)	14.6
Cc1cc(NCC(=O)N(C)CC(F)(F)F)c(C(N)=O)cc1F	1.83
O=C1CC(CNc2cncc(Cl)n2)c2ccccc2N1 (stereo not given)	-2.03
Cc1ccc(N2CCCC(NC(=O)Cc3csc(C)n3)C2=O)cc1 (stereo not given)	-0.932
Cc1cc(N2CCC(NCCOc3ccccc3)CC2)nc(C)n1	3.15
O=C(Nc1ccccc1OC1CCOC1)c1ccon1 (stereo not given)	-1.12
Cc1ncccc1C(=O)Nc1cccc2c1C(=O)NC2	-2.21
COCCNC(=O)c1cc(F)ccc1NS(C)(=O)=O	-1.48
CC(c1nc(C2CC2)no1)N(C)Cc1ccc(C#N)cc1 (stereo not given)	-1.86
CCOCc1ccccc1NC(=O)NCC(C)(O)c1ccsc1 (stereo not given)	-2.17
CCN(CC(=O)NC)C(=O)Cc1csc(C(C)C)n1	-1.76
CCS(=O)(=O)c1ccc2c(c1)OCCCO2	0.078
N#Cc1cccnc1NC1CCN(c2ccccc2OC(F)F)C1=O (stereo not given)	17.8
CS(=O)(=O)CCN(CC1CCCO1)C1CCCC1 (stereo not given)	19.5
CC(C)c1nnc2n1CCN(C(=O)c1ccc(OCC3CC3)nc1)C2	11

SMILES	cytotoxicity at 70.5 h [%]
COc1c(CNCC(O)COc2ccc3c(c2)OCO3)c(C)nn1C (stereo not given)	14.9
Nc1nccnc1C(=O)N1CCN(Cc2cccc3ccccc23)CC1	28
CN(C)c1cc(C(=O)NCC2(c3cccc(F)c3)CCOCC2)ccn1	-4.88
Cc1nc(CNCC(O)COc2ccc3c(c2)OCO3)cs1 (stereo not given)	1.9
Cn1cccc(NC(=O)COc2ccc(Br)cc2)c1=O	21.8
CN(C)S(=O)(=O)Nc1ccc(-n2nccc2C(F)(F)F)cc1	6.87
Nc1nccnc1C(=O)N1CC(OCc2cccc3ccccc23)C1	9.66
Cc1nnc2ccc(N3CCC4(CCOC4)C3)nn12 (stereo not given)	-3.17
NS(=O)(=O)CCN1CCOC(c2ccsc2)C1 (stereo not given)	1.05
O=C1CCC(=O)N1CCN1CCOC(c2ccsc2)C1 (stereo not given)	3.03
Cn1cnn(Cc2c(F)cccc2Br)c1=O	24.5
NC(=O)N1CC(OCc2cccc3ccccc23)C1	2.87
N#Cc1ccccc1N1CCC(Nc2nccnc2C#N)CC1	0.142
CCS(=O)(=O)CCN(CC1CCCO1)C1CCCC1 (stereo not given)	-2.46
Cc1cc(CN(C)Cc2ncc(-c3cccs3)o2)no1	0.203
CCc1nc(CN(C)Cc2ncc(-c3cccs3)o2)cs1	-1.61
COC(=O)N1CCC(NC2CCSCC2)C1 (stereo not given)	0.96
Cc1csc(C2CCCCN2C(=O)CCn2cncn2)n1 (stereo not given)	33.9
CC(C)C(=O)NCCNC(=O)C(C)OCC(F)(F)F (stereo not given)	-8.9
O=C(NCC(O)c1ccccc1C(F)(F)F)c1cccnc1 (stereo not given)	-11
CCN(CC)Cc1ccc(C(=O)NC2CCc3ccccc32)o1 (stereo not given)	21.6
CC(=O)N1Cc2ccccc2CC1C(=O)Nc1ccc(C)cn1 (stereo not given)	-15.7
CS(=O)(=O)N1CCN(c2cc(N3CCCC3CO)ncn2)CC1 (stereo not given)	-7.63
O=C(CN1CCCC(c2ccn[nH]2)C1)N1CCCc2ccccc21 (stereo not given)	15.3
